Test system: 144 ydaO (RNA, riboswitch) GGGAAAACAAAUCGCUUAAUCUGAAAUCAGAGCGGGGGACCCAAUAGAACGGCUUUUUGCCGUUGGGGUGAAUCCUUUUUAGGUAGGGCUAACUCUCAUAUGCCCGAAUCCGUCAGCUAACCUCGUAAGCGUUCGUGAGAGGAGAU
Test: in-line probing
Details: low millimolar; tested to 3.16 mM; taken as the shorter construct of b32

With Nc1ncnc2c1ncn2[C@@H]1O[C@H](COP(=O)(O)OP(=O)(O)OP(=O)(O)O)[C@@H](O)[C@H]1O the binding was “weak”.

From paper PMC3830699 (2013)
